Reference: patent US8207167B2, “Aryl-phenyl-sulfonamide-phenylene compounds and their use” (PIMCO 2664 Limited, priority 2008, dated 2012)
Values after ≈ are worked out from the molar mass of the structure shown.

Assays:
J774 macrophages = assay: Alamar Blue macrophage J774 viability assay; format: cell-based; settings: Mus musculus, 72 hours culture with compound, Alamar Blue read-out
Method: (§1) Initial screening of candidate compounds was performed using in vitro assays to determine potency, metabolic stability and solubility in biologically relevant fluids. Potency was assessed using a viability assay based on the survival of the J774 macrophage cell line. Macrophages are closely related to osteoclasts and have been used previously as a model system for osteoclast survival (see, e.g., Luckman et al., 1998). Like osteoclasts, J774 macrophages are dependent on continued NFκB activation for survival, thereby providing a valuable screen for compounds with anti-inflammatory activity. Metabolic stability was measured by determining the rate of disappearance of compound in the presence of human liver microsomal preparations, as quantified by LC-MS/MS. Solubility was measured by equilibration of the compound in fasted state simulated intestinal fluid (FaSSIF) and quantified by HPLC.
In vitro potency as anti-inflammatory agents was determined for a number of APSAP compounds by incubation with J774 macrophages and subsequent determination of cell viability.
J774 cells were plated at 10^4 cells per well in 100 μL αMEM (α Modified Eagle Medium) in 96-well plates and grown overnight. The next day, test compounds were added to the cultures, and cultures were continued for another 72 hours. At the end of the culture period, cell survival was determined using an Alamar Blue assay as previously described (see, e.g., Nociari et al., 1998).
Alamar Blue is an oxidation-reduction sensitive indicator. The dye itself is in the oxidised state, which is blue and non-fluorescent. The dye can accept electrons from reducing species, such as NADPH and FADH, to form a reduced dye species, which is red and fluorescent. Thus the transformation from oxidised form to reduced form can be measured by fluorimetric or colourimetric means. For fluorescence measurements, 530-560 nm excitation and 590 nm emission wavelengths are typically used. For colourimetric measurements, absorbance at 570 nm (reduced form) and 600 nm (oxidised form) is typically measured. A simple calculation is performed to determine the relative quantities of the two species.
A high ratio of the reducing species, NADPH and FADH, to the corresponding oxidised species, NADP and FAD, is an indicator that cells are proliferating and viable. A low ratio indicates cells that are quiescent or non-viable.
Briefly, Alamar Blue (Biosource International) was added undiluted to each well (1:10 v/v, 10 μL). The plate was incubated at 37° C. for 3-4 hours and the fluorescence was measured at 590 nm, with a 25 nm bandwidth. A high reading indicated cells with normal viability, and a low reading indicated cells that have been damaged and are no longer proliferating normally. The controls gave a high fluorescence reading, indicating a high number of live, healthy cells. A potent test compound gave a low fluorescence reading.
The average results for each test compound (n=5) were expressed as a percent (%) of the average control value.
Addition of Compounds. All of the compounds studied were made up as 100 mM solutions in DMSO. These stock solutions were then diluted 1000-10000× in culture medium (αMEM). From these 100 μM or 10 μM solutions, convenient quantities (3-33 μL) were added directly to the wells so as to give the desired final compound concentration.

[1] = Thermodynamic aqueous solubility in fasted state simulated intestinal fluid (FaSSIF); format: physicochemical; settings: fasted state simulated intestinal fluid (FaSSIF), pH 6.5, thermodynamic from solid, 25° C., 24 hours equilibration, HPLC
Method: as §1
Thermodynamic aqueous solubility was measured by equilibration of a number of APSAP compounds, in the solid state, with fasted state simulated intestinal fluid (FaSSIF) and quantified by HPLC. Measurement of solubility in FaSSIF provides a valuable model for the prediction of drug dissolution following oral administration.
Preparation of blank FaSSIF: NaOH pellets (174 mg), NaH2PO4.2H2O (2.235 g), and NaCl (3.093 g) were dissolved in 500 mL of water. The pH was adjusted to 6.5 using 1 M NaOH solution.
Preparation of FaSSIF: Sodium taurocholate (165 mg) was dissolved in 25 mL blank FaSSIF. 0.6 mL of a solution containing 100 mg/mL lecithin in methylene chloride was added. The methylene chloride was eliminated under vacuum at about 40° C. The vacuum was drawn for 15 minutes at 250 mbar, followed by 15 minutes at 100 mbar. […] After cooling to room temperature, the solution was then adjusted to 100 mL with blank FaSSIF.
The suspension was equilibrated at 25° C. for 24 hours, and then the pH was measured. The suspension was then filtered through a glass fibre C filter into a 96-well plate. The filtrate was then diluted by a factor of 100. Quantification was made by HPLC with reference to a standard solution of compound at approximately 0.1 mg/mL in DMSO. Different volumes of the standard, diluted and undiluted sample solutions were injected. The solubility was calculated using the peak areas determined by integration of the peak found at the same retention time as the principal peak in the standard injection. Analysis was performed on an Agilent HP1100 series system equipped with a diode array detector and using ChemStation software vB.02.01-SR1.

[2] = Human liver microsomal stability assay; format: in vitro ADME; settings: pooled human liver microsomes 0.5 mg/mL, test compound 3 μM, 45 minute incubation, NADPH
Method: as §1
Metabolic stability of APSAP derivatives was measured by determination of the rate of compound disappearance when incubated in the presence of human liver microsomes. Liver microsomes are prepared from the endoplasmic reticulum of hepatocytes and are the primary source of the most important enzymes (cytochrome P450) involved in drug metabolism. Study of drug stability in the presence of liver microsomes is accepted as a valuable model permitting rapid prediction of in vivo drug stability.
Human liver microsomes were obtained from a commercial source. Test compounds (3 μM) were incubated with pooled liver microsomes (male and female). Samples were incubated for a 45 minute period and removed at 5 time points and test compounds were analysed by LC-MS/MS.
The final incubation volume was 25 μL. A control incubation was included for each compound tested, where 0.1 M phosphate buffer pH 7.4 was added instead of NADPH. The control compounds testosterone and 7-hydroxycoumarin were included in each experiment and all incubations were performed singularly for each compound.
Each compound was incubated for 0, 5, 15, 30, and 45 minutes. The control (minus NADPH) was incubated for 45 minutes only. The reactions were stopped by the addition of 50 μL methanol containing internal standard at the appropriate time points. The incubation plates were centrifuged at 2500 rpm for 20 minutes at 4° C. to precipitate the protein.
Following protein precipitation, the sample supernatants were combined in cassettes of up to 4 compounds and analysed using standard LC-MS/MS conditions.
From a plot of the natural logarithm of the peak area ratio (i.e., the ratio of compound peak area:internal standard peak area) against time, the gradient of the line was determined. Subsequently, half-life and intrinsic clearance were calculated using the equations below: Eliminated rate constant(k)=(−gradient). […] Intrinsic Clearance(CLint)([…])=(V×0.693)/t1/2. wherein V=Incubation volume(μL/mg microsomal protein). Pharmacokinetics Studies

In the case of CNC(CO)c1cccc(NS(=O)(=O)c2ccc(-c3ccc(F)cc3F)cc2)c1 (stereo not drawn) [ABD789, 2′,4′-Difluoro-N-(3-(2-hydroxy-1-(methylamino)ethyl)phenyl)biphenyl-4-sulfonamide], the IC50 (J774 macrophages) is reported as 0.14 µM, the solubility at 24 h [1] is reported as 0.52 mg/mL (≈ 1240 µM) and the T1/2 [2] is reported as “Stable”.
